Experiment: xn = mol fraction of the nth substance listed
Conditions: 308.2 K, Liquid, Pycnometric method

CCCCCl [1-chlorobutane] + O=C=O
Conditions	mass density [kg/m3]
6210 kPa, x1 = 0.1488	843
6560 kPa, x1 = 0.0981	819
6560 kPa, x1 = 0.1488	848
6790 kPa, x1 = 0.0981	825
6850 kPa, x1 = 0.1488	853
6910 kPa, x1 = 0.0744	786
6980 kPa, x1 = 0.0981	827
7080 kPa, x1 = 0.0744	791
7140 kPa, x1 = 0.0981	831
7240 kPa, x1 = 0.0483	742
7250 kPa, x1 = 0.1488	858
7320 kPa, x1 = 0.0981	834
7330 kPa, x1 = 0.0483	747
7430 kPa, x1 = 0.0483	752
7470 kPa, x1 = 0.0744	801
7500 kPa, x1 = 0.0981	837
7530 kPa, x1 = 0.0483	757
7640 kPa, x1 = 0.0243	670
7660 kPa, x1 = 0.0483	761
7670 kPa, x1 = 0.0243	674
7700 kPa, x1 = 0.0744	807
7710 kPa, x1 = 0.0243	678
7730 kPa, x1 = 0.0981	840
7740 kPa, x1 = 0.0243	682
7740 kPa, x1 = 0.1488	863
7780 kPa, x1 = 0.0243	686
7790 kPa, x1 = 0.0483	766
7820 kPa, x1 = 0.0243	690
7860 kPa, x1 = 0.0243	694
7940 kPa, x1 = 0.0243	701
7940 kPa, x1 = 0.0483	770
7940 kPa, x1 = 0.0981	843
7950 kPa, x1 = 0.0744	812
8030 kPa, x1 = 0.0243	707
8070 kPa, x1 = 0.0744	814
8110 kPa, x1 = 0.0483	776
8120 kPa, x1 = 0.0243	713
8170 kPa, x1 = 0.0981	846
8230 kPa, x1 = 0.0243	720
8230 kPa, x1 = 0.0744	817
8280 kPa, x1 = 0.0483	780
8290 kPa, x1 = 0.1488	868
8350 kPa, x1 = 0.0243	727
8350 kPa, x1 = 0.0744	820
8390 kPa, x1 = 0.0981	849
8470 kPa, x1 = 0.0483	785
8480 kPa, x1 = 0.0243	734
8500 kPa, x1 = 0.0744	822
8560 kPa, x1 = 0.0483	788
8570 kPa, x1 = 0.0243	738
8630 kPa, x1 = 0.0981	852
8640 kPa, x1 = 0.0744	825
8670 kPa, x1 = 0.0483	790
8770 kPa, x1 = 0.0483	793
8800 kPa, x1 = 0.0243	748
8830 kPa, x1 = 0.0744	828
8840 kPa, x1 = 0.1488	873
8890 kPa, x1 = 0.0483	795
8900 kPa, x1 = 0.0981	856
8910 kPa, x1 = 0.0243	753
8970 kPa, x1 = 0.0744	830
9000 kPa, x1 = 0.0483	798
9050 kPa, x1 = 0.0243	758
9120 kPa, x1 = 0.0483	800
9160 kPa, x1 = 0.0744	833
9160 kPa, x1 = 0.0981	859
9190 kPa, x1 = 0.0243	763
9230 kPa, x1 = 0.0483	803
9330 kPa, x1 = 0.0744	836
9350 kPa, x1 = 0.0483	805
9450 kPa, x1 = 0.0981	862
9480 kPa, x1 = 0.1488	878
9490 kPa, x1 = 0.0483	808
9530 kPa, x1 = 0.0744	838
9640 kPa, x1 = 0.0483	811
9700 kPa, x1 = 0.0744	841
9780 kPa, x1 = 0.0483	813
9780 kPa, x1 = 0.0981	865
9910 kPa, x1 = 0.0483	815
9940 kPa, x1 = 0.0744	844
10030 kPa, x1 = 0.0981	869
10110 kPa, x1 = 0.0744	846
10150 kPa, x1 = 0.1488	883
10380 kPa, x1 = 0.0981	872

Source: the NIST ThermoML archive (doi:10.1021/je900387e)
